We go through one compound from patent publication US9180155B2, “Compositions from Nigella sativa” (Bio Nexus, Ltd, priority 2013, dated 2015).

For one test, the system named is C2C12 myocytes. Briefly: Lipolysis (glycerol assay) in C2C12 myocytes. Format: cell-based, murine. The note with it: 5 or 2.5 μg/mL (FIG. 10). As for the experimental part: Culture and treatment of 3T3-L1 adipocytes and C2C12 myocytes was as described in Example 5. Concentrations of the forskolin positive control and test materials are listed in FIG. 9 for adipocytes and FIG. 10 for myocytes. Free fatty acid release from 3T3-L1 adipocytes or C2C12 myocytes was quantified by measuring glycerol secretion into the medium. Glycerol was measured spectrophotometrically using the Free Glycerol Determination Kit ([…], Sigma) and an EL 312e Microplate BIO-KINETICS spectrophotometer (BioTek, Winooski, Vt.). Glycerol release from adipocytes and myocytes was expressed, respectively, as the percent increase in free fatty acid secretion (FIG. 9) and relative glycerol content (glycerol index FIG. 10) ±95% confidence intervals of eight observations for one of three representative experiments.

Test [1] concerns prostate specific antigen (PSA) secretion by LNCaP prostate cells. Briefly: PSA secretion from LNCaP prostate cells. To be noted: 5 to 100 μg/mL (Spent#1, NSSpent#2: 250 and 500). Format: cell-based, Human. The source says:
PSA was quantified from the cell culture supernatant fluid using the Quantikine Human KLK3/PSA Immunoassay kit (R&D Systems, Inc., Minneapolis, Minn.). All other materials used in this example were purchased from Sigma (St. Louis, Mo.) or otherwise noted and were of the highest purity commercially available. The N. sativa samples used in this study were those commercial-scale extracts described in Example 1. The LNCaP prostate cell line, which produces PSA, was used to study the effects of commercial-scale N. sativa scale extracts of Example 1 and pure TQ on the secretion of PSA. LNCaP cells were purchased from the American Type Culture Collection (ATCC, Manassas, Va.) and sub-cultured according to instructions supplied by ATCC. Prior to experiments, cells were cultured in DMEM containing 10% FBS-HI added 50 units penicillin/ml and 50 μg streptomycin/ml, and maintained in log phase prior to experimental setup. Cells were grown in a 5% CO2 humidified incubator at 37° C. Components of medium included: (1) 10% FBS/DMEM (Fetal Bovine Serum/Dulbecco's Modified Eagle's Medium) containing 4.5 g glucose/L; (2) 50 U/ml penicillin; and (3) 50 μg/ml streptomycin. Growth medium was made by adding 50 ml of heat inactivated FBS and 5 ml of penicillin/streptomycin to 500 ml DMEM. This medium was stored at 4° C. Before use, the medium was warmed to 37° C. in a water bath. LNCaP cells were seeded at an initial density of 6×10^4 cells/cm^2 in 96-well plates. For two days, the cells were allowed grow to reach confluence. On day three post seeding, cells were treated with TQ, NS8, NS9, NS10, Spent#1, and NSSpent#2 at the concentrations listed in FIGS. 5, 6 and 7. Twenty-four hours later, the supernatant media were sampled and assayed for PSA.

Test [2] has as its system adiponectin secretion in 3T3-L1 adipocytes. Nature of the test: Adiponectin secretion in t10-CLA-stimulated 3T3-L1 adipocytes. Format: cell-based, murine. The note with it: t10-CLA 50 μM control = 100; μg TQ equivalents/mL: Thymoquinone 5.0, NS8 0.11, NS9 0.99, NS10 0.012, NSSpent#2 0.0005; NSSpent#1 5 μg/mL; listed as TQ. As for the experimental part: The 3T3-L1 murine fibroblast model as used in Example 4 was used in this experiments. Test materials were added four hours prior to the addition of t10-CLA at a concentration of 50 μM. Following overnight incubation, the supernatant media were sampled for determination of IL-6 and adiponectin. The adiponectin secreted into the medium was quantified using the Mouse Adiponectin Quantikine® Immunoassay kit with no modifications (R&D Systems, Minneapolis, Minn.). […] Test materials and were assayed in duplicate, while solvent controls were replicated eight times. IL-6 and adiponectin secretion were represented relative to the IL-6 and adiponectin secretion of the t10-CLA only controls as the IL-6 and adiponectin index and differences among the means were analyzed by the student's t-test assuming a five percent probability of a type I error (Excel; Microsoft, Redmond, Wash.).

As to `CC1=CC(=O)C(C(C)C)=CC1=O` [Thymoquinone, thymoquinone], in the test on C2C12 myocytes, the “free fatty acid release in myocytes” value is listed as “induced free fatty acid release”. In addition, the “Effect on PSA Secretion over 24 Hours” value is “Decreased PSA at 5 and 10 μg/mL, dramatic” in test [1] (at 5 and 10 µg/mL); “increase in PSA secretion at 50 and 100 μg/mL” in test [1] (at 50 and 100 µg/mL); “decreased PSA only at the two lowest doses tested” in test [1] (listed as TQ). For the same compound, the “Adiponectin Index” value in test [2] is “attenuated t10-CLA-stimulated decrease of adiponectin secretion”.
